Reference: patent US20260049089A1, “KRAS INHIBITOR COMPOUND” (SHANGHAI APEIRON THERAPEUTICS COMPANY LIMITED, priority 2022, published 2026)
Read-outs that look alike come from different tables or passages of the source.

Columns and labels:
Type in all cases: cell-based
pERK in AGS cells = assay: ERK phosphorylation cell assay, AGS; settings: 3 hours compound incubation, read-out: pERK AGS_IC50
Protocol: (§1) • Day 1: AGS cells were seeded into a 384-well cell culture plate and incubated overnight at 37° C. with 5% CO2 in a cell culture incubator. • Day 2: Compounds were added to the plate using an Echo550 liquid handler, followed by incubation at 37° C. with 5% CO2 in a cell culture incubator for 3 hours. Subsequently, the cells were fixed with paraformaldehyde, permeabilized with methanol, and blocked with blocking buffer. A primary antibody mixture (rabbit anti-pERK, mouse anti-GAPDH) was added, and the plate was incubated overnight at 4° C. • Day 3: The primary antibodies were removed, and a secondary antibody mixture (goat anti-rabbit 800CW, goat anti-mouse 680RD) was added. The plate was incubated at room temperature in the dark. After three washes with PBST, the plate was inverted and centrifuged for 1 minute. Fluorescence signal values were read using an Odyssey CLx imaging system.
(§2) [formula] • Negative control: DMSO • Positive control: 10 μM Reference • Fitted using XLFit 5.0 with the following parameters:
(§3) [formula] • X: Log of compound concentration • Y: Mean relative expression levels of p-ERK across replicates

pERK in AsPC-1 cells = assay: ERK phosphorylation cell assay, AsPC-1; settings: read-out: pERK AsPC-1_IC50
Protocol: [Worded in the source for another cell line; this cell line is reported under the same test.] as §1, §2, §3

AGS cells = assay: 3D cell proliferation assay (CellTiter-Glo 3D), AGS; settings: 5 days, read-out: 3D Proliferation Inhibition AGS_IC50
Protocol: (§4) Using a nanoliter liquid handling system (LABCYTE, P-0200), the diluted test compounds were added to a 384-well low-adsorption cell culture plate. Cells were seeded into the wells, and the plate was placed in an incubator at 37° C. with 5% CO2. After co-incubating the compounds and cells for 5 days, CellTiter-Glo® 3D reagent was added. Luminescence values were measured using an EnVision Multilabel Plate Reader (luminescence is proportional to the ATP content in the system, and ATP content directly reflects the number of viable cells). Finally, the IC50 values (half-maximal inhibitory concentrations) of the compounds were determined using non-linear fitting equations in XLFit software with the following parameters: […]
(§5) X: Logarithm of compound concentration • Y: Inhibition rate (%)
(§6) [formula] • Negative control: DMSO • Positive control: Medium only

AsPC-1 cells = assay: 3D cell proliferation assay (CellTiter-Glo 3D), AsPC-1; settings: 5 days, read-out: 3D Proliferation Inhibition AsPC-1_IC50
Protocol: as §4, §5, §6

[1] = Homo sapiens, ASPC1, AsPC-1 cells

Row | Compound | IC50 (pERK in AGS cells) [µM] | IC50 (pERK in AsPC-1 cells; AsPC-1 cells) [µM] | IC50 (AGS cells; Homo sapiens, AGS, 120 h) [µM] | IC50 (AsPC-1 cells; Homo sapiens, ASPC1, 120 h) [µM] | IC50 (pERK in AGS cells; Homo sapiens, AGS, 3 h) [µM] | IC50 (pERK in AsPC-1 cells; [1]) [µM] | IC50 (AGS cells) [µM] | IC50 (AsPC-1 cells) [µM]
1 | C=C1CN2CCC[C@@]2(COc2nc(N3CCC[C@@](C)(O)C3)c3cc4c(c(F)c3n2)-c2cc(O)cc3ccc(F)c(c23)CCOCCN4)C1 (single isomer, unassigned) [Example 42D] | 0.0022 | 0.012 | – | – | – | – | 0.0059 | 0.039
2 | C[C@@]1(O)CCCN(c2nc(OC[C@@]34CCCN3C[C@H](F)C4)nc3c(F)c4c(cc23)NCCOCCc2c(F)ccc3cccc-4c23)C1 (single isomer, unassigned) [Example 52B] | > 10 | > 10 | > 10 | > 10 | – | – | – | –
3 | CN1CCCCc2c(F)ccc3cc(O)cc(c23)-c2c1cc1c(N3CC4CCC(C3)N4)nc(OC[C@@]34CCCN3C[C@H](F)C4)nc1c2F [Example 3, 10-((1R,5S)-3,8-Diazabicyclo[3.2.1]octan-3-yl)-3,14-difluoro-12-(((2R,7aS)-2-fluorotetrahydro-1H-pyrazin-7a(5H)-yl)methoxy)-8-methyl-5,6,7,8-tetrahydro-4H-naphtho[1′,8′:4,5,6]acridin[2,3-g]quinazolin-16-ol] | – | – | 0.329 | 0.393 | 0.047 | 0.104 | – | –
4 | Oc1cc2c3c(c(F)ccc3c1)CCCCCNc1cc3c(N4CC5CCC(C4)N5)nc(OC[C@@]45CCCN4C[C@H](F)C5)nc3c(F)c1-2 [Example 5, 11-((1R,5S)-3,8-Diazabicyclo[3.2.1]octane-3-yl)-3,15-difluoro-13-(((2R,7aS)-2-fluorotetrahydro-1H-pyrrolin-7a(5H)-yl)methoxy)-4,5,6,7,8,9-hexahydro-naphtho[1′,8′:4,5,6][1]azacycloundecino[2,3-g]quinazolin-17-ol] | – | – | 0.128 | 0.196 | 0.012 | 0.041 | – | –
5 | Oc1cc2c3c(c(F)ccc3c1)CCCCCCNc1cc3c(N4CC5CCC(C4)N5)nc(OC[C@@]45CCCN4C[C@H](F)C5)nc3c(F)c1-2 [Example 8] | – | – | 0.255 | 0.682 | 0.073 | 0.278 | – | –
6 | O=C1CCCCCc2c(F)ccc3cc(O)cc(c23)-c2c(cc3c(N4CC5CCC(C4)N5)nc(OC[C@@]45CCCN4C[C@H](F)C5)nc3c2F)N1 [Example 9, 12-((1R,5S)-3,8-diazabicyclo[3.2.1]octan-3-yl)-3,16-difluoro-14-(((2R,7aS)-2-fluorotetrahydro-1H-pyrazin-7a(5H)-yl)methoxy)-18-hydroxy-5,6,7,8-tetrahydro-4H-naphtho[1′,8′:4,5,6][1]azacyclododecino[2,3-g]quinazolin-9(10H)-one] | 0.018 | 0.118 | 0.051 | – | – | – | – | 0.613
7 | C[C@@]1(O)CCCN(c2nc(OC[C@@]34CCCN3C[C@H](F)C4)nc3c(F)c4c(cc23)NCCCCCc2c(F)ccc3cc(O)cc-4c23)C1 [Example 16, 3,15-difluoro-13-(((2R,7aS)-2-fluorotetrahydro-1H-pyrrolidin-7a(5H)-yl)methoxy)-11-((R)-3-hydroxy-3-methylpiperidin-1-yl)-4,5,6,7,8,9-hexahydronaphthol[1′,8′:4,5,6][1]azacycloundecane [2,3-g]quinazolin-17-ol] | – | – | 0.083 | 0.288 | 0.031 | 0.102 | – | –
8 | C[C@@]1(O)CCCN(c2nc(OCC3(CN4CCOCC4)CC3)nc3c(F)c4c(cc23)NCCCCCc2c(F)ccc3cc(O)cc-4c23)C1 [Example 26] | 0.074 | 0.234 | 0.393 | 0.607 | 0.051 | 0.218 | – | –
9 | C[C@@]1(O)CCCN(c2nc(OCC34CCCN3CC(=CF)C4)nc3c(F)c4c(cc23)NCCCCCc2c(F)ccc3cc(O)cc-4c23)C1 (stereo partly drawn) [Example 30] | – | – | 0.177 | 0.534 | 0.055 | 0.171 | – | –
10 | CN1CC(F)(F)C[C@H]1COc1nc(N2CCC[C@@](C)(O)C2)c2cc3c(c(F)c2n1)-c1cc(O)cc2ccc(F)c(c12)CCCCCN3 [Example 34, 13-(((S)-4,4-difluoro-1-methylpyrrolidin-2-yl)methoxy)-3,15-difluoro-11-((R)-3-hydroxy-3-methylpiperidin-1-yl)-4,5,6,7,8,9-hexahydro-naphtho[1′,8′:4,5,6][1]azacycloundecino[2,3-g]quinazoline-17-ol] | – | – | 3.66 | 3.35 | 8.96 | > 10 | – | –
11 | C[C@@]1(O)CCCN(c2nc(OCC34CCCN3CC(F)(F)C4)nc3c(F)c4c(cc23)NCCCCCc2c(F)ccc3cc(O)cc-4c23)C1 (stereo partly drawn) [Example 36] | – | – | 1.88 | 2.48 | 1.39 | 3.91 | – | –
12 | C[C@@]1(O)CCCN(c2nc(OC[C@@]34CCCN3C[C@H](F)C4)nc3c(F)c4c(cc23)NCCOCCc2c(F)ccc3cc(O)cc-4c23)C1 [Example 43B] | – | – | 0.148 | 0.434 | 0.061 | 0.108 | – | –

The next lines start with results.

Row | IC50 (pERK in AGS cells) [µM] | IC50 (pERK in AsPC-1 cells; AsPC-1 cells) [µM] | IC50 (AGS cells; Homo sapiens, AGS, 120 h) [µM] | IC50 (AsPC-1 cells; Homo sapiens, ASPC1, 120 h) [µM] | IC50 (pERK in AGS cells; Homo sapiens, AGS, 3 h) [µM] | IC50 (pERK in AsPC-1 cells; [1]) [µM] | Compound | IC50 (AGS cells) [µM] | IC50 (AsPC-1 cells) [µM]
13 | 0.157 | 0.754 | 0.346 | 2.1 | 0.135 | 0.728 | C[C@@]1(O)CCCN(c2nc(OCC34CCCN3CC3(CC3)C4)nc3c(F)c4c(cc23)NCCCCCc2c(F)ccc3cc(O)cc-4c23)C1 (stereo partly drawn) [Example 23] | – | –
14 | – | – | 0.314 | 1 | 0.099 | 0.338 | CN(C)CC1(COc2nc(N3CCC[C@@](C)(O)C3)c3cc4c(c(F)c3n2)-c2cc(O)cc3ccc(F)c(c23)CCCCCN4)CC1 [Example 27] | – | –
15 | – | – | 2.69 | 2.83 | 4.58 | > 10 | C[C@H](Oc1nc(N2CCC[C@@](C)(O)C2)c2cc3c(c(F)c2n1)-c1cc(O)cc2ccc(F)c(c12)CCCCCN3)[C@@H]1CCCN1C [Example 35, 3,15-Difluoro-11-((R)-3-hydroxy-3-methylpiperidin-1-yl)-13-((S)-1-((S)-1-methylpyrrolidin-2-yl)ethoxy)-4,5,6,7,8,9-hexahydro-naphtho[1′,8′:4,5,6][1]azacycloundecino[2,3-g]quinazoline-17-ol] | – | –
16 | – | – | 6.39 | > 10 | > 10 | > 10 | CN(C)C1CN(c2nc(N3CCC[C@@](C)(O)C3)c3cc4c(c(F)c3n2)-c2cc(O)cc3ccc(F)c(c23)CCCCCN4)C1 [Example 39, (R)-13-(3-(dimethylamino)azetidinyl)-3,15-difluoro-11-(3-hydroxy-3-methylpiperidin-1-yl)-4,5,6,7,8,9-hexahydro-naphtho[1′,8′:4,5,6][1]azacycloundecino[2,3-g]quinazoline-17-ol] | – | –
17 | – | – | 2.05 | 2.17 | 9.11 | > 10 | C=C1CN2CCCC2(COc2nc(N3CCC[C@@](C)(O)C3)c3cc4c(c(F)c3n2)-c2cc(N)cc3ccc(F)c(c23)CCCCCN4)C1 (stereo partly drawn) [Example 40, (3R)-1-(17-amino-3,15-difluoro-13-((2-methylenetetrahydro-1H-pyrazin-7a(5H)-yl)methoxy)-4,5,6,7,8,9-hexahydronaphtho[1′,8′:4,5,6][1]azacycloundecano[2,3-g]quinazolin-11-yl)-3-methylpiperidin-3-ol] | – | –
18 | – | – | 0.012 | 0.03 | 0.0058 | 0.011 | [2H]C([2H])([2H])N1CCOCCc2c(F)ccc3cc(O)cc(c23)-c2c1cc1c(N3CCC[C@@](C)(O)C3)nc(OC[C@@]34CCCN3C[C@H](F)C4)nc1c2F [Example 46, 3,15-difluoro-13-(((2R,7aS)-2-fluorotetrahydro-1H-pyrazin-7a(5H)-yl)methoxy)-11-((R)-3-hydroxy-3-methylpiperidin-1-yl)-9-(trideuteromethyl)-4,5,8,9-tetrahydro-7H-naphtho[1′,8′:7,8,9][1]oxa[4]azacycloundeca[5,6-g]quinazoline-17-ol] | – | –
19 | 0.0027 | 0.0079 | – | – | – | – | CN1CCOCCc2c(F)ccc3cc(O)cc(c23)-c2c1cc1c(N3CCC[C@@](C)(O)C3)nc(OC[C@@]34CCCN3C[C@H](F)C4)nc1c2F [Example 47, 3,15-difluoro-13-(((2R,7aS)-2-fluorotetrahydro-1H-pyrazin-7a(5H)-yl)methoxy)-11-((R)-3-hydroxy-3-methylpiperidin-1-yl)-9-methyl-4,5,8,9-tetrahydro-7H-naphtho[1′,8′:7,8,9][1]oxa[4]azacycloundeca[5,6-g]quinazoline-17-ol] | 0.0088 | 0.028
20 | – | – | 0.0074 | 0.042 | 0.0033 | 0.017 | C=C1CN2CCCC2(COc2nc(N3CCC[C@@](C)(O)C3)c3cc4c(c(F)c3n2)-c2cc(O)cc3ccc(F)c(c23)CCOCCN4C)C1 (stereo partly drawn) [Example 48] | – | –
